Experiments:
[1] = in vivo
Description: (§1) The experimental technique was based on ocular fundus fluorescence: Five patients were used in this study. […] Then every hour, the conjunctivae of the two eyes were exposed every hour to a 10% fluorescein solution. 8 hours later the fundus fluorescence in the two eyes was measured and analysed.

[2] = ocular fundus fluorescence after topical drug carrier plus fluorescein eye drops; conditions: exposure of the conjunctival fornices to a 10% fluorescein solution; 7 hours later
Description: as §1

[3] = tested on: macular oedema secondary to CRVO; conditions: injected into the eye (intravitreal); cited from earlier work

Compound	anterior segment fluorescence compared with the eye receiving only fluorescein [1]	ocular fundus fluorescence compared with the eye receiving only fluorescein [1]	effect on macular oedema secondary to CRVO [3]	further results
Brc1c(NC2=NCCN2)ccc2nccnc12 [brimonidine]	stronger	stronger	–	–
O=C1OC2(c3ccc(O)cc3Oc3cc(O)ccc32)c2ccccc21 [fluorescein]	–	–	–	maximum vitreous concentration [2]: 1.5e-12 g/mL
CNC[C@H](O)c1cccc(O)c1 [neosynephrine]	–	stronger	–	–
CC(C)(C)NC[C@H](O)COc1nsnc1N1CCOCC1 [timolol]	the same	stronger	–	–
C[C@]12C=CC(=O)C=C1CC[C@H]1[C@@H]3C[C@@H](O)[C@](O)(C(=O)CO)[C@@]3(C)C[C@H](O)[C@@]12F [triancinolone (Aristocert®), triancinolone]	–	–	efficacy	–
bevacizumab [Avastin®]	–	–	improved	–
